Assay results from PubChem BioAssay (NCI).
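Growth conditions: 96-well plates. Treatment: test compound, 48 hours, 5 concentrations. Analysis: linear interpolation between bracketing concentrations; unreached endpoints set to highest concentration. GI50 = concentration required for 50% inhibition of growth. TGI is the concentration that stops growth completely.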

Assays:
Assay in all cases: growth of human tumour cells (NCI), 48 h
[1] = test system: SW-620 colon
[2] = test system: HT29 colon
[3] = test system: OVCAR-4 ovarian
[4] = test system: SK-OV-3 ovarian
[5] = test system: HCC-2998 colon
[6] = test system: HOP-92 NSCLC
[7] = test system: UO-31 renal
[8] = test system: OVCAR-3 ovarian
[9] = test system: HOP-62 NSCLC
[10] = test system: SNB-75 CNS
[11] = test system: HCT-116 colon
[12] = test system: OVCAR-8 ovarian
[13] = test system: SK-MEL-2 melanoma
[14] = test system: EKVX NSCLC
[15] = test system: NCI-H460 lung
[16] = test system: PC-3 prostate
[17] = test system: MOLT-4 leukemia
[18] = test system: SF-295 CNS
[19] = test system: A498 renal
[20] = test system: LOX IMVI melanoma
[21] = test system: SR leukemia
[22] = test system: NCI-H226 lung
[23] = test system: HL-60(TB) leukemia
[24] = test system: SN12C renal
[25] = test system: SF-539 CNS
[26] = test system: SF-268 CNS
[27] = test system: A549 NSCLC
[28] = test system: KM12 colon
[29] = test system: IGROV1 ovarian
[30] = test system: COLO 205 colon
[31] = test system: K-562 leukemia
[32] = test system: NCI-H23 lung
[33] = test system: MDA-MB-231 breast
[34] = test system: OVCAR-5 ovarian
[35] = test system: RXF 393 renal
[36] = test system: BT-549 breast
[37] = test system: SK-MEL-28 melanoma
[38] = test system: UACC-257 melanoma
[39] = test system: 786-0 renal
[40] = test system: DU-145 prostate
[41] = test system: MCF7 breast
[42] = test system: HS 578T breast
[43] = test system: ACHN renal
[44] = test system: CCRF-CEM leukemia
[45] = test system: SK-MEL-5 melanoma
[46] = test system: MDA-MB-435
[47] = test system: NCI/ADR-RES ovarian
[48] = test system: TK-10 renal
[49] = test system: UACC-62 melanoma
[50] = test system: M14 melanoma
[51] = test system: RPMI-8226 leukemia
[52] = test system: MALME-3M melanoma
[53] = test system: U251 CNS
[54] = test system: T-47D breast
[55] = test system: SNB-19 CNS
[56] = test system: CAKI-1 renal
[57] = test system: NCI-H522 lung
[58] = test system: HCT-15 colon

C=C(CN1C(=O)[C@H]2CCCN2C(=O)c2ccccc21)c1ccc(C(=O)O)cc1
GI50 [1]: > 100 µM
TGI [1]: > 100 µM
GI50 [2]: > 100 µM
TGI [2]: > 100 µM
GI50 [3]: > 100 µM
TGI [3]: > 100 µM
GI50 [4]: > 100 µM
TGI [4]: > 100 µM
GI50 [5]: > 100 µM
TGI [5]: > 100 µM
GI50 [6]: > 100 µM
TGI [6]: > 100 µM
GI50 [7]: > 100 µM
TGI [7]: > 100 µM
GI50 [8]: > 100 µM
TGI [8]: > 100 µM
GI50 [9]: > 100 µM
TGI [9]: > 100 µM
GI50 [10]: > 100 µM
TGI [10]: > 100 µM
GI50 [11]: > 100 µM
TGI [11]: > 100 µM
GI50 [12]: > 100 µM
TGI [12]: > 100 µM
GI50 [13]: > 100 µM
TGI [13]: > 100 µM
GI50 [14]: > 100 µM
TGI [14]: > 100 µM
GI50 [15]: > 100 µM
TGI [15]: > 100 µM
GI50 [16]: > 100 µM
TGI [16]: > 100 µM
GI50 [17]: > 100 µM
TGI [17]: > 100 µM
GI50 [18]: > 100 µM
TGI [18]: > 100 µM
GI50 [19]: > 100 µM
TGI [19]: > 100 µM
GI50 [20]: > 100 µM
TGI [20]: > 100 µM
GI50 [21]: > 100 µM
TGI [21]: > 100 µM
GI50 [22]: > 100 µM
TGI [22]: > 100 µM
GI50 [23]: > 100 µM
TGI [23]: > 100 µM
GI50 [24]: > 100 µM
TGI [24]: > 100 µM
GI50 [25]: > 100 µM
TGI [25]: > 100 µM
GI50 [26]: > 100 µM
TGI [26]: > 100 µM
GI50 [27]: > 100 µM
TGI [27]: > 100 µM
GI50 [28]: > 100 µM
TGI [28]: > 100 µM
GI50 [29]: > 100 µM
TGI [29]: > 100 µM
GI50 [30]: > 100 µM
TGI [30]: > 100 µM
GI50 [31]: > 100 µM
TGI [31]: > 100 µM
GI50 [32]: > 100 µM
TGI [32]: > 100 µM
GI50 [33]: > 100 µM
TGI [33]: > 100 µM
GI50 [34]: > 100 µM
TGI [34]: > 100 µM
GI50 [35]: > 100 µM
TGI [35]: > 100 µM
GI50 [36]: > 100 µM
TGI [36]: > 100 µM
GI50 [37]: > 100 µM
TGI [37]: > 100 µM
GI50 [38]: > 100 µM
TGI [38]: > 100 µM
GI50 [39]: > 100 µM
TGI [39]: > 100 µM
GI50 [40]: > 100 µM
TGI [40]: > 100 µM
GI50 [41]: > 100 µM
TGI [41]: > 100 µM
GI50 [42]: > 100 µM
TGI [42]: > 100 µM
GI50 [43]: > 100 µM
TGI [43]: > 100 µM
GI50 [44]: > 100 µM
TGI [44]: > 100 µM
GI50 [45]: > 100 µM
TGI [45]: > 100 µM
GI50 [46]: > 100 µM
TGI [46]: > 100 µM
GI50 [47]: > 100 µM
TGI [47]: > 100 µM
GI50 [48]: > 100 µM
TGI [48]: > 100 µM
GI50 [49]: > 100 µM
TGI [49]: > 100 µM
GI50 [50]: > 100 µM
TGI [50]: > 100 µM
GI50 [51]: > 100 µM
TGI [51]: > 100 µM
GI50 [52]: > 100 µM
TGI [52]: > 100 µM
GI50 [53]: > 100 µM
TGI [53]: > 100 µM
GI50 [54]: > 100 µM
TGI [54]: > 100 µM
GI50 [55]: > 100 µM
TGI [55]: > 100 µM
GI50 [56]: > 100 µM
TGI [56]: > 100 µM
GI50 [57]: > 100 µM
TGI [57]: > 100 µM
GI50 [58]: > 100 µM
TGI [58]: > 100 µM
